{"source": "patent US7888527B2", "about": "(University of Virginia Patent Foundation, priority 2004, dated 2011)", "key": {"human S1P1 receptor": {"target": "human S1P1 receptor (Homo sapiens, UniProt P21453)", "sequence (P21453 whole entry)": "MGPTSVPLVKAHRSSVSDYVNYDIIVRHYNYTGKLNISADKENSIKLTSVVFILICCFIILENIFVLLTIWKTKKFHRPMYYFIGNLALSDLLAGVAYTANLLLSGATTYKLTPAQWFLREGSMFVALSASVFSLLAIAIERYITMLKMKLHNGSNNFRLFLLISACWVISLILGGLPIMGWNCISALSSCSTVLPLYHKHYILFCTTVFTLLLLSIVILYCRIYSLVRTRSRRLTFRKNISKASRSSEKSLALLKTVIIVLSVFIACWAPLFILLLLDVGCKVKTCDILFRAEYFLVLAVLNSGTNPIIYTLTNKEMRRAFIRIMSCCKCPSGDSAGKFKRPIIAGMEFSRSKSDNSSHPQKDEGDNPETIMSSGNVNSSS", "test": "[γ-35S]GTP binding assay, HEK293T membranes (agonism and Schild antagonism)", "assay_type": "biochemical", "set-up": "expressed in transfected cells; host or cells: HEK293T, transient transfection; membranes", "from_the_text": "(§1) The appropriate receptor plasmid DNA (encoding human S1P1, human S1P2, human S1P3, human S1P4, human S1P5, human LPA1, human LPA2 or human LPA3 receptors) is mixed with equal amounts of expression plasmids encoding human Gi2α (for S1P3, a mutated (C352F) rat Gi2α is used), cow β1, and cow γ2 proteins, and these DNAs are used to transfect monolayers of HEK293T cells (where ‘T’ indicates expression of the SV-40 virus large T antigen) using the calcium phosphate precipitate method (7). After about 60 hours, cells are harvested, membranes prepared, aliquoted, and stored at −70° C. until use (8).\n(§2) The [γ-^35S]GTP binding assay is performed as described previously (8). Membranes containing 1-5 μg of protein are incubated in 0.1 ml of binding buffer (in mM: HEPES/50, NaCl/100, MgCl2/10, pH 7.5) containing 5 μg of saponin, 10 μM GDP, 0.1 nM [γ-^35S]GTP (1200 Ci/mmol), and indicated lipid(s) for 30 min at 30° C. and collected using a Brandel Cell Harvester (Gaithersburg, Md.). Samples are then analyzed for bound radionuclide.\n(§3) Briefly, nonlinear analysis of the best-fit line generated by plotting the negative log of the EC50 values obtained from agonist dose-response curves, in the absence and presence of varying concentrations of antagonist, was plotted against the concentration of antagonist to give the Kb value.\nStatistical Analysis. The EC50 and IC50 values for all dose response curves were determined by nonlinear regression analysis of all data using the Graphpad Prism© program. The error associated with the data collected is reported as the standard error of the mean (S.E.M)."}, "human S1P3 receptor": {"target": "human S1P3 receptor (Homo sapiens, UniProt Q99500)", "sequence (Q99500 whole entry)": "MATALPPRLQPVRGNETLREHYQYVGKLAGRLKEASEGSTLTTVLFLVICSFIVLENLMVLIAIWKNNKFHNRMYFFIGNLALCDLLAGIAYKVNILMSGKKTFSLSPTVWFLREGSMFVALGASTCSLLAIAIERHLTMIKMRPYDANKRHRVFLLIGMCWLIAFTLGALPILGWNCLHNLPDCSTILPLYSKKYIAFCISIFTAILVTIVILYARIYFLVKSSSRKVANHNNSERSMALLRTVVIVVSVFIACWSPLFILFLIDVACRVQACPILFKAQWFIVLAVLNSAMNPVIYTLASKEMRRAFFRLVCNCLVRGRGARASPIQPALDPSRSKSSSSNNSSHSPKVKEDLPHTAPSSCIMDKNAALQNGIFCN", "test": "Intracellular calcium mobilization, T24 cells transfected stably with human S1P3 receptor", "assay_type": "cell-based", "set-up": "expressed in transfected cells", "procedure": "[…] monolayers are co-transfected with the human S1P1, S1P2, S1P3 receptor encoding DNAs and the pIRESpuro2 plasmid DNA (Clontech, San Jose, Calif.,) using either Lipofectamine 2000 (Invitrogen, Carlsbad, Calif.) or FuGENE 6 (Roche Applied Science, Indianapolis, Ind.). Clonal populations expressing the puromycin acetyltransferase gene are selected by addition of puromycin (Sigma-Aldrich, St. Louis, Mo.) to the culture media. T24 cells are grown in monolayers at 37° C. in a 5% CO2/95% air atmosphere in growth media consisting of: 95% DMEM/F-12 medium and 10% charcoal/dextran stripped FBS.\nA FlexStation™ fluorimeter (Molecular Devices, Menlo Park, Calif.) was used to measure intracellular calcium in native T24 cells and T24 cells transfected stably with either human S1P2 or human S1P3 receptor DNA. Cells were seeded (˜50,000 cells/well) in 96-well, clear bottom black microplates (Corning Costar Corp.) and left overnight at 37° C. The cells were dye-loaded with 4 μM Fluo-4AM ester in a loading buffer (Hank's Balanced Salt Solution, […], containing 20 mM HEPES, 0.1% fatty acid free BSA, and 2.5 mM probenecid) for 30 minutes at 37° C. After washing cell monolayers three times with phosphate buffered saline, loading buffer was added and the cells exposed to sets of compounds for 3 minutes at 25° C. in the FlexStation™. In all cases, each concentration of every compound was tested in at least triplicate. […] The cells were washed with phosphate buffered saline and exposed to compounds immediately, as described above.\nas §3"}, "[1]": {"system": "LPA1-3 EDG-family receptors", "test": "Activity at LPA receptors", "assay_type": "biochemical, human", "conditions": "concentrations up to 30 μM", "from_the_text": "as §1, §2"}, "S1P2 receptor": {"target": "T1, S1P2 receptor (Homo sapiens, UniProt O95136)", "T1 construct": "expressed in transfected cells; host or cells: HEK293T, transient transfection; membranes", "T1 sequence (O95136 whole entry)": "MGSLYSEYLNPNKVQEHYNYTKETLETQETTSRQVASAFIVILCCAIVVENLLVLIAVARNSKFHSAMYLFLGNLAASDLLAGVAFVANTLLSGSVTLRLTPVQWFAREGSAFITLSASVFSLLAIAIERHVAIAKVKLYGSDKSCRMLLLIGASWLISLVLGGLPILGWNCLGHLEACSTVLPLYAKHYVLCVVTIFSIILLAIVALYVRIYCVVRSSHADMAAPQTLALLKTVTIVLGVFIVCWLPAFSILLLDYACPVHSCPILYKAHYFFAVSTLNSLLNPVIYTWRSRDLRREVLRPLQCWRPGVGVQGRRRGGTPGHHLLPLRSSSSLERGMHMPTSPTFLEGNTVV", "test": "[32P]S1P binding assay", "conditions": "concentrations up to 10 μM (data not shown)", "procedure": "[^32P]-S1P was prepared by incubating sphingosine and [γ-^32P]ATP with cell lysate from HEK293T cells transiently transfected with human sphingosine kinase type 2 DNA. The 200 μl reaction contained 0.025 mM sphingosine, 1 mCi [γ-^32P]ATP (7000 Ci/mmol) and kinase buffer (in mM: Mg(C2H3O2)2 (in 50 mM Tris, pH 7.5)/10, NaF/10, and semicarbizide/2). The reaction was initiated by the addition of 20 μg of cell lysate and incubated at 37° C. for at least 30 minutes. […] The organic layer was isolated and the extraction procedure repeated two additional times with the remaining aqueous fraction. The combined organic fractions were dried under a stream of nitrogen gas and resuspended in aqueous 0.1% fatty acid free BSA.\nBound ligand was separated from free ligand by rapid filtration and analyzed in a liquid scintillation counter."}}, "note": "Entries after “also recorded” stand apart in the source; their conditions may differ."}
{"smiles": "CCCCCCCCc1cccc(NC(=O)[C@H](N)COP(=O)(O)O)c1", "note": "[VPC23019]", "values": [{"measurement": "Agonist activity at the S1P1 receptor", "setting": "human S1P1 receptor", "result": "lacked agonist activity"}, {"measurement": "pKb S1P1", "setting": "human S1P1 receptor; Schild analysis (Lew and Angus) of S1P curves in [γ-35S]GTP binding, ± S.E.M.", "result": "7.49±0.16"}, {"measurement": "Inverse agonism profile at S1P1", "setting": "human S1P1 receptor; VPC23019 concentrations greater than 100 nM", "result": "a profile suggesting inverse agonism"}, {"measurement": "Antagonism of S1P at the S1P1 receptor", "setting": "human S1P1 receptor; [γ-35S]GTP binding, S1P with increasing VPC23019, Lew and Angus regression", "result": "dose-dependent, parallel rightward shift; also recorded: competitive antagonist"}, {"measurement": "Kb", "setting": "human S1P1 receptor; read-out: pKb S1P1 (converted)", "result": 32.4, "unit": "nM"}, {"measurement": "Agonist efficacy class S1P1", "setting": "human S1P1 receptor; relative to S1P Emax", "result": "na (no agonist activity (<10% of S1P Emax))"}, {"measurement": "Reversibility of antagonism after washout, Ca2+ mobilization", "setting": "human S1P3 receptor; 10000 nM VPC23019 pre-treatment followed by washout", "result": "recovered fully"}, {"measurement": "Competitive behaviour in calcium mobilization assay (nonlinear regression)", "setting": "human S1P3 receptor; T24-S1P3 cells", "result": "did not behave as a competitive antagonist"}, {"measurement": "Calcium mobilization by compound alone", "setting": "human S1P3 receptor; T24-S1P3 cells versus wild-type T24 cells", "result": "not a result of stimulation of the S1P3 receptor"}, {"measurement": "Agonist activity at LPA1-3 receptors", "setting": "[1]", "result": "neither agonist activity"}, {"measurement": "Influence on binding of [32P]S1P to the S1P2 receptor", "setting": "S1P2 receptor", "result": "did not influence the binding"}]}
